# Results: patent US6916471B2, “Red blood cells loaded with S-nitrosothiol and uses therefor” (Duke University, priority 1995, dated 2005)
# “And” between values parts separate entries of the source, which are not always exact repeats. Equal entries are not always repeated.
# Legend:
# [1] = tested on: rabbit thoracic aorta rings; experiment: Rabbit aortic ring bioassay: native and blocked Hb preparations, vessel tone and ACh (EDRF) relaxation; conditions: 1 μM
# From the text: Hb-mediated inhibition of endothelium-dependent relaxations is commonly used as a marker of NO responses. Inasmuch as reactions with either metal or thiol centers of Hb should lead to attenuated NO/EDRF (endothelium-derived relaxing factor) responses, we attempted to elucidate the molecular basis of inhibition. Hb preparations in which β93 thiol groups had been blocked with N-ethylmaleimide (NEM) or the hemes blocked by cyanmet (FeIIICN)-derivitization were studied in an aortic ring bioassay, and their activities compared with that of native Hb. Both cyanmet-Hb and NEM-Hb caused increases in vessel tone and attenuated acetylcholine (EDRF)-mediated relaxations (FIG. 3B). […] To verify formation of an S-nitrosothiol in Hb, we established a bioassay in which 2 cm segments of thoracic aorta were interposed in Tygon tubing, through which 3 cc of Krebs solution containing Hb (4 μM) and ACh (2 μM) were circulated by roller pump (1.5 cc/min×5 min).
# The effects of native Hb on EDRF responses were compared with Hb preparations in which the thiol or heme centers had been blocked by alkylation or cyanmet derivitization, respectively. All preparations of Hb elicited contractions; however, those of native Hb (in which both SH and metal centers are free for interaction) were most pronounced. […] Relaxations were inhibited to lesser degrees by cyanmet Hb (CN-Hb)(in which hemes were blocked from reaction) and NEM-Hb (in which thiol groups were alkylated by N-ethylmaleimide). […] Direct measurement of SNO-Hb, formed from EDRF under similar conditions, is described in Example 8.
# Descending rabbit thoracic aorta were cut into 3 mm rings and mounted on stirrups attached to force transducers (model FT03, Grass Instruments, Quincy, Mass.) for measurement of isometric tone. The details of this bioassay system have been previously described (Stamler, J. S., et al., Proc. Natl. Acad. Sci. USA 89:444-448 (1992)). Cyanmet Hb was prepared from human HbA according to published protocols (Kilbourn, R. G. et al. Biochem. Biophy. Res. Comm. 199:155-162, (1994)). Alkylation of HbA with N-ethylmaleimide was followed by desalting across G-25 Sephadex to remove excess NEM. Removal of unmodified Hbcysβ93 was achieved by passage through Hg-containing affinity columns. The alkylation of free SH groups was verified using 5,5′-dithio-bis[2-nitrobenzoic acid].
# [2] = tested on: rabbit thoracic aorta rings; experiment: Oxygen-dependent rabbit aortic ring bioassay of Hb, SNO-Hb, GSNO and SNO-RBCs
# Sprague-Dawley rats = experiment: Local cerebral blood flow by H2-sensitive microelectrodes; assay type: in vivo, rat; conditions: 1 μmol/kg infused over 3 minutes
# Procedure: Adult male Sprague-Dawley rats (290-350 g) were anesthetized with sodium pentobarbital (50 mg/kg IP), intubated and ventilated with a small animal respirator (Edco Scientific Inc., Chapel Hill, N.C.) at a rate and tidal volume to maintain normal values of PaCO2 (35-45 mm Hg; PaCO2=systemic arterial blood carbon dioxide tension). The femoral vein and artery were cannulated for infusion of drugs and for continuous monitoring of systemic blood pressure, respectively. Aliquots of arterial blood (200 μl) were drawn periodically to measure blood gas tensions and pH (Instrumentation Laboratory Co., model 1304 blood gas/pH analyzer). The blood was replaced intravenously with three volumes of normal saline. The inspired O2 concentration was varied using premixed gases balanced with nitrogen. The tissue PO2 was measured continuously with polarographic platinum microelectrodes (50 μm O.D. coated with hydrophobic gas permeable Nafion) implanted stereotaxically in both the right and left hippocampus (AP−3.4 mm, ML+2.2 mm), caudate putamen nucleus and substantia nigra (see coordinates below) (Young, W., Stroke, 11:552-564 (1980); Heiss, W. D. and Traupett, H., Stroke, 12:161-167 (1981); Dewhirst, M. W. et al., Cancer Res., 54:3333-3336 (1994); Kerger, H. et al., Am. J. Physiol., 268:H802-H810 (1995)). The PO2 electrodes were polarized to −0.65V against a distant Ag/AgCl reference located on the tail and the current flow was measured using a low-impedance nA-meter. Regional arterial PO2 was adjusted by changing the inspired O2 concentration and atmospheric pressure.
# Polarographic hydrogen (H2)-sensitive microelectrodes were implanted stereotaxically in the substantia nigra (AP −5.3 mm, ML −2.4 mm to the bregma, depth 3.2 mm), caudate putamen nucleus (CPN) (AP +0.8 mm, ML −2.5 mm, depth 5.2 mm) and parietal cortex, for measurement of regional blood flow (Young, W., Stroke, 11:552-564 (1980); Heiss, W. D. and Traupett, H., Stroke, 12:161-167 (1981)). The microelectrodes were made from platinum wire and insulated with epoxy, with the exception of the tip (1 mm) which was coated with Nafion. For placement, the electrodes were mounted on a micromanipulator and the rat's head was immobilized in a Kopf stereotaxic frame. H2-sensitive electrodes were polarized to +400 mV against a distant reference electrode on the tail, and the polarographic current was measured using a low-impedance nA meter during and after the inhalation of hydrogen gas (2.5%) for 1 min. Both the hydrogen clearance curves and voltage for oxygen measurements were made using PC WINDAQ (software, DI-200 AC, Dataq Instruments, Inc., Akron, Ohio). Cerebral blood flow was calculated using the initial slope method (Young, W., Stroke, 11:552-564 (1980); Heiss, W. D. and Traupett, H., Stroke, 12:161-167 (1981)). Regional blood flow responses were monitored for 30 min. prior to and 30 min. following drug administration; hemoglobins were given at time 0.
# The cerebrovascular effects of SNO-Hb were measured in adult male Sprague-Dawley rats using O2 and H2 (blood flow)-sensitive microelectrodes that were placed stereotaxically in several regions of the brain as for Example 11.
# Comparative effects of SNO-Hb (●) and Hb (▪) (1 μmol/kg infused over 3 minutes) on local blood flow in substantia nigra (SN), caudate putamen nucleus, and parietal cortex are shown for three different conditions. […] Baseline blood flow was decreased by ˜10% under 100% O2+3 ATA as compared to 100% O2. n=7 for all data points. Values of tissue/microvascular PO2 ranged from 19-37 mm Hg in 21% O2; from 68-138 mm Hg in 100% O2; and from 365-538 mm Hg in 100%+3 ATA (Duke University Medical Center Hyperbaric Chambers).
# vascular ring = experiment: Vessel ring bioassay of SNO-Hb preparations, with or without glutathione; conditions: for effect of added glutathione on the dose-response: glutathione 100 μM in bioassay chambers
# From the text: Arterial red blood cells contain two physiologically important forms of hemoglobin: Hb(FeII)O2 and Hb(FeIII) (Antonini et al. (1971)). […] Such findings raise the possibility of functional consequences, perhaps influenced by the redox state of heme and its occupation by ligand.
# Details of the vessel ring bioassay have been published (Stamler, J. S., et al., Proc. Natl. Acad. Sci. USA 89:444-448 (1992)). SNO-Hb(FeII)O2 preparations were synthesized with 10-fold excess S-nitrosocysteine (CYSNO) over Hb(FeII)O2 protein (2% borate, 0.5 mM EDTA, ˜15 min incubation), after which desalting was performed across Sephadex G-25 columns. CYSNO was synthesized in 0.5 N HCl, 0.5 mM EDTA and then neutralized (1:1) in 1 M phosphate buffer containing 0.5 mM EDTA. […] The latter was synthesized by treatment of Hb(FeII)O2 with excess ferricyanide, followed by desalting across G-25 columns. SNO-Hb concentrations were verified spectroscopically and the S-nitrosothiol content was determined by the method of Saville (Stamler, J. S., et al., Proc. Nat. Acad. Sci. USA 89:444-448 (1992)). The S-NO/tetramer stoichiometry for both SNO-Hb preparations was ˜2. Oxidation of the heme was undetectable by uv-spectrophotometric methods.
# Sprague-Dawley rat = experiment: Mean arterial pressure after femoral vein bolus of cell-free Hb and SNO-Hbs; assay type: in vivo
# From the text: Systemic administration of cell-free Hb results in hypertensive responses which have been attributed to NO scavenging by the heme (Vogel, W. M., et al., Am. J. Physiol. 251:H413-H420 (1986); Olsen, S. B., et al., Circulation 93:329-332 (1996)). To determine if SNO-Hb is free of this adverse affect, and to explore if in vitro mechanisms of NO release extend to the in vivo circumstance, we compared responses to Hb and SNO-Hb infused as a bolus into the femoral vein of anesthetized rats. […] Thus, the profiles of these compounds in vivo closely resemble those seen in vitro (FIG. 4A). […] These changes in mean blood pressure of ˜10% are on the order of those that differentiate normotension from hypertension in man, and in the therapeutic range of some antihypertensive regimens. […] The bioactivity of SNO-Hb in blood, where S—NO/heme stoichiometries approach 1:50,000, is a dramatic illustration of the resistence of this NO-related activity to Hb(Fe) inactivation.
# Administration of 2-200 nmol/kg Hb(FeII)O2 (as a bolus) into the femoral vein of a Sprague-Dawley rat is shown to increase mean arterial pressure in a dose-dependent manner. At 200 nmol/kg, mean arterial pressure increased by 25 mm Hg (20±3 mm Hg; n=4; P<0.05). Elevations in blood pressure reversed within 10-15 min. SNO-Hb(FeII)O2 infusions (over the same dose range) are shown to ameliorate Hb(FeII)O2-induced hypertension without causing overt changes in blood pressure. […] A fall in blood pressure was also seen with injection of erythrocytes containing SNO-Hb.
# Rats were anesthetized by intraperitoneal injection of pentobarbital and the femoral arteries and veins accessed by local cut down. The artery was then cannulated and the blood pressure monitored continuously using a Viggo Spectramed pressure transducer attached to a Gould recorder. An IBM PC (DATA Q Codas) was used for data acquisition.
# rat red blood cells = experiment: S-nitrosylation of intraerythrocytic Hb (loading of red blood cells); assay type: cell-based; conditions: for formation of intraerythrocytic SNO-Hb: oxygenated rat red blood cells
# Procedure: Given that Hb is largely contained within red blood cells, potential mechanisms by which S-nitrosylation of intracellular protein might occur were explored. […] Rapid oxidation of Hb was not observed under these conditions. […] Thus, erythrocyte access of RSNOs is thiol group specific.
# Incubation of rat erythrocytes with S-nitrosocysteine (equimolar to heme (5 mM); phosphate buffer pH 7.4, 25° C.) leads to rapid formation of intracellular SNO-Hb(FeII)O2. […] By 60 min, 3 of the 4 available SH groups of Hb are S-nitrosylated (note that rat Hb contains 4 reactive SH groups). […] Spectrum A is that of SNO-Hb isolated from erythrocytes following G-25 chromatography. Treatment of A with dithionite results in reduction of the S—NO moiety, liberating free NO which is autocaptured by deoxy Hb, forming Hb(FeII)NO (note that dithionite simultaneously deoxygenates Hb) (spectrum C). […] The spectrum of Hb(FeII)NO containing 4 NO's per tetramer is shown for comparison (inset, spectrum B).
# At shown intervals, red blood cells were pelleted rapidly by centrifugation, washed three times, lysed in deionized water at 4° C., and the cytosolic fraction subjected to rapid desalting across G-25 columns. Intracellular SNO-Hb was measured by the method of Saville (Gaston, B., et al., (1992); Stamler, J. S., et al., Proc. Natl. Acad. Sci. USA, 89:444-448 (1992)), and confirmed spectroscopically (inset of FIG. 3A) as described above.
molecule,measurement,setting,value
Hb: native cell-free human hemoglobin purified from red cells [reference compound],% ACh RELAXATION,[1],31.9 ± 6.9 (n = 7) %
same,% INCREASE IN TENSION,[1],40.8 ± 2.3 (n = 7) %
same,effect on tone of rings contracted with phenylephrine under hypoxia,"[2]; 1 μM, 6-7 torr",progressive increases in vessel tone
same,local cerebral blood flow,Sprague-Dawley rats; 21% O2,decreased local blood flow
same,local cerebral blood flow,Sprague-Dawley rats; 100% O2,decrease in flow was preserved
same,local cerebral blood flow,Sprague-Dawley rats; 100% O2+3 ATA,tended to decrease cerebral flow to similar extents
deoxyHb: deoxygenated hemoglobin [reference compound],effect on vessel tone in T-structure,[2]; <1% O2 (˜6 torr),powerful contractile agent
SNO-Hb(FeII)O2: S-nitroso-oxyhemoglobin,effect of added glutathione on the dose-response,vascular ring,potentiates the dose-response
same,activity in vascular ring bioassay,vascular ring; no glutathione,modest NO-like activity
same,blood pressure response,"Sprague-Dawley rat; bolus, femoral vein, anesthetized rat",did not exhibit hypertensive effects
"Hb(FeII)O2: oxyhemoglobin, cell-free [reference compound]",effect of added glutathione on the dose-response,vascular ring,did not significantly influence the response
same,increase in mean arterial pressure,"Sprague-Dawley rat; 200 nmol/kg bolus, femoral vein, anesthetized rat",20±3 mm Hg and 25 mm Hg
same,time for elevations in blood pressure to reverse,Sprague-Dawley rat; 2-200 nmol/kg bolus,10 to 15 min
"[N]=O [NO, nitric oxide, reference compound]",formation of intraerythrocytic SNO-Hb,rat red blood cells,primarily in metHb formation
NEM-Hb: Hb in which thiol groups were alkylated by N-ethylmaleimide,% ACh RELAXATION,[1],60.5 ± 3.9 (n = 7) %
same,% INCREASE IN TENSION,[1],29.4 ± 1.3 (n = 7) %
N[C@@H](CSN=O)C(=O)NCC(=O)O [S-nitrosocysteinylglycine],formation of intraerythrocytic SNO-Hb,rat red blood cells,Intraerythrocytic SNO-Hb also formed
N[C@@H](CCSN=O)C(=O)O [S-nitrosohomocysteine],formation of intraerythrocytic SNO-Hb,rat red blood cells,Intraerythrocytic SNO-Hb also formed
N[C@@H](CSN=O)C(=O)O [S-nitrosocysteine],SH groups of Hb S-nitrosylated,"rat red blood cells; of the 4 available SH groups of rat Hb, by 60 min, equimolar to heme (5 mM), pH 7.4, 25° C.",3
same,formation of intraerythrocytic SNO-Hb,rat red blood cells,very rapid formation of intracellular SNO-Hb(FeII)O2
"CC(=O)OCC[N+](C)(C)C [ACh, acetylcholine]",% ACh RELAXATION,[1],98.3 ± 0.6 (n = 10) %
"CN-Hb: cyanmet Hb, in which hemes were blocked from reaction",% ACh RELAXATION,[1],80.7 ± 1.0 † (n = 4) %
same,% INCREASE IN TENSION,[1],12.9 ± 3.0 (n = 6) %
